Results: ChEMBL document CHEMBL1208770, “Inhibitors of osteoclastogenesis from Lawsonia inermis leaves” (Bioorg Med Chem Lett, 2010)

Tests used:
[1] = Cytotoxicity against mouse BMDM cells at 10 uM after 72 hrs by MTS assay; format: cell-based
[2] = Inhibition of RANKL-induced osteoclastogenesis in mouse BMDM assessed as decrease in TRAP-positive cells at 10 uM after 5 days by light microscopy; format: functional; conditions: 120 h

SMILES	Activity [1]	inhibition at 10 µM [2] [%]
O=c1ccc2ccc(O[C@@H]3O[C@H](CO)[C@@H](O)[C@H](O)[C@H]3O)c(O[C@@H]3O[C@H](CO)[C@@H](O)[C@H](O)[C@H]3O)c2o1 [DAPHNESIDE]	Non-toxic	20
COc1cc2cc(Oc3ccc4ccc(=O)oc4c3)c(=O)oc2cc1O[C@@H]1O[C@H](CO)[C@@H](O)[C@H](O)[C@H]1O [DAPHNORIN]	Non-toxic	13
